{
  "source": "patent US20200368175A1",
  "about": "“METHODS AND DEVICES FOR TREATING LEVODOPA INDUCED DYSKINESIA” (CHRONO THERAPEUTICS INC., priority 2017, published 2020)",
  "key": {"clinical": {"assay": "clinical", "experimental": "The graph is based on the oral nicotine administration protocol administering a 6 mg nicotine tablet every 6 hours, as described in International Patent Publication No. WO 2013/006643, the entirety of which is incorporated by reference herein.\nTo obtain the graph shown in FIG. 2, the plasma concentration-time profile of oral nicotine was simulated using the pharmacokinetic equation (equation 1) for multiple-dose oral administration: […]\nwhere F is oral bioavailability. D is oral dose, ka is absorption rate constant. Vd is volume of distribution, ke is elimination rate constant, s is dose interval, n is the number of dose, and C is the plasma concentration at any time ‘t’.\nThe pharmacokinetic parameters F, D, and T were obtained from Hukkanen, J. et al. Pharmacol Rev. 2005 March; 57(1):79-115 and U.S. Patent Publication No. 20130017259A1. Further, the pharmacokinetic parameter absorption rate constant (ka) shown in the above table was obtained by fitting the orally administered nicotine PK data (obtained from Benowitz, N. L. et al. Clin Pharmacol Ther. 1991 March; 49(3):270-7) to a two-compartmental pharmacokinetic model (shown in FIG. 4). Pharmacokinetic parameters Vd (volume of distribution) and ke (elimination rate constant) were obtained by fitting intravenously administered nicotine PK data (obtained from Benowitz, N. L. et al. Clin Pharmacol Ther. 1991 March; 49(3):270-7) to the two-compartmental model shown in FIG. 4 without the absorption component and lag component."}, "[1]": {"settings": "transdermal delivery device, clinical PK data fitted to two-compartmental model with lag compartment", "from_the_text": "To obtain the graphs shown in FIGS. 5-7, the plasma concentration-time profile of nicotine administered transdermally was simulated by means of a two compartmental model, as shown in FIG. 4. In addition to the two compartments (Central and peripheral), the lag compartment was included to take absorption lag into account associated with transdermal delivery."}, "[2]": {"settings": "oral nicotine, human; from Hukkanen et al. and US 20130017259A1; cited from earlier work"}, "[3]": {"settings": "amnestic MCI subjects, six months, cited from earlier work"}},
  "note": "Like-named read-outs stand apart in the source and are kept apart here.",
  "data": [
    {"molecule": "CN1CCCC1c1cccnc1", "note": "(stereo not drawn) [nicotine]", "values": [
      {"measurement": "Vd", "setting": "clinical; human, plasma, iv", "result": 76, "unit": "L"},
      {"measurement": "ke (elimination rate constant), average value", "setting": "clinical; intravenous nicotine PK data of Benowitz et al. fitted to two-compartmental model without absorption and lag components", "result": 0.9, "unit": "h⁻¹"},
      {"measurement": "ka (absorption rate constant), average value", "setting": "clinical; oral nicotine PK data of Benowitz et al. fitted to two-compartmental model", "result": 2.5, "unit": "h⁻¹"},
      {"measurement": "Vd (volume of distribution), average value", "setting": "[1]", "result": 59, "unit": "L"},
      {"measurement": "ka (absorption rate constant), average value", "setting": "[1]", "result": 0.29, "unit": "h⁻¹"},
      {"measurement": "ke (elimination rate constant), average value", "setting": "[1]", "result": 2.15, "unit": "h⁻¹"},
      {"measurement": "F (oral bioavailability), average value", "setting": "[2]", "result": 0.32},
      {"measurement": "effect on attention, memory and psychomotor speed", "setting": "[3]; 15 mg per day transdermal nicotine vs placebo", "result": "significant nicotine-associated improvements in attention, memory, and psychomotor speed"},
      {"measurement": "safety and tolerability", "setting": "[3]; 15 mg per day transdermal nicotine", "result": "excellent safety and tolerability"}
    ]}
  ]
}
